According to patent publication US20220273629A1, “METHODS OF TREATING DISORDERS ASSOCIATED WITH ELEVATED LEVELS OF ANTIBODIES THAT INTERACT WITH THE NMDA RECEPTOR” (Aptinyx Inc., priority 2019, published 2022):

Key:
[1] = target: T1, NR2B surface expression in hNR1/PSD95/NR2B expressing HEK cells (Homo sapiens, UniProt Q13224); assay: β-lactamase assay, NR2B surface expression, compound alone (absence of Ab), wild-type; type: cell-based; settings: for surface NR2B expression in wild-type NR2B receptors relative to untreated vehicle controls: no antibody, varying concentrations, FIG. 6A-6C
T1 construct: expressed in transfected cells; transient β-lactamase-hGluN2B
Experimental: (§1) Un-transfected (Untfx) cells were used as a negative control for surface β-lactamase activity.
(§2) hNR1/PSD95/NR2B-expressing HEK cells tagged with a β-lactamase enzyme at the N-terminus of NR2B are incubated with a 1:50 dilution of purified patient serum IgG for 45 min. The cells are washed with buffer to remove antibodies and then incubated for 15 min in the presence or absence of each of compounds A, B, or C at concentrations of 10 fM, 1 pM, 100 pM and 10 nM respectively. After said time, the membrane impermeable substrate nitrocefin and ±each of compounds A, B, and C are added. The NR2B N-terminal β-lactamase cleaves nitrocefin, resulting in a change of absorbance to 486 nm. The absorbance at 486 nm is measured every minute for 30 min.
(§3) Un-transfected (Untfx) cells were used as a negative control for surface β-lactamase activity. Human IgG (Sigma-Aldrich) at a concentration of 0.5 mg/ml was used as a negative control for non-specific receptor internalization.
(§4) HEK293 cells stably expressing human GluN1 and PSD-95 were transiently transfected with hGluN2B tagged at the N-terminus with the β-lactamase enzyme using X-tremeGENE9 transfection reagent (Sigma-Aldrich). Transfected cultures were maintained in media containing ketamine (0.18 mg/ml) to minimize excitotoxicity. Twenty-four hours after transfection, cells were re-plated into poly-d-lysine coated 96-well plates at a concentration of 30,000 cells/well. The following day, cells were washed with buffer (HBSS, 10 mM HEPES, […]) and then incubated with a 1:50 dilution of purified patient IgG for 45 min at 37° C. The cells were washed once with buffer and then incubated for 15 min at 37° C. with buffer ±each of compound A, B and C. Nitrocefin in buffer (100 mM final; Cayman Chemical) ±each of compound A, B and C was added to each well and absorbance at 486 nm was measured every minute for 30 min at 37° C. in a plate reader. Un-transfected (Untfx) cells were used as a negative control for surface β-lactamase activity. Human IgG (Sigma-Aldrich) at a concentration of 0.5 mg/ml was used as a negative control for non-specific receptor internalization. Slopes of optical density are graphed as fold change over vehicle, mean ±SEM (n=8-12). Statistics were determined by one-way ANOVA compared to antibody only (Ab).

[2] = target: T1, NR2B surface expression in hNR1/PSD95/NR2B expressing HEK cells; assay: β-lactamase assay, restoration of NR2B surface expression after purified ANRE patient serum IgG; type: cell-based; settings: 45 min purified patient serum IgG 1:50, then 15 min compound at 10 fM, 1 pM, 100 pM, 10 nM; FIG. 1 / FIG. 3
Experimental: as §1, §2
Slopes of optical density are graphed as fold change over the vehicle. N=8; Statistics were determined by one-way ANOVA compared to antibody only (Ab). * p≤0.05, ** p≤0.01, *** p≤0.001, **** p≤0.0001 (FIG. 1).
as §3
hNR1/PSD95/NR2B expressing HEK cells tagged with a β-lactamase enzyme at the N-terminus of NR2B are incubated with purified patient serum IgG (1:50 dilution) for 45 min. The cells are washed to remove antibodies and then incubated for 15 min in the presence or absence of each of compounds A, B, C, D, E, F, G, and H at concentrations of 10 fM, 1 pM, 100 pM and 10 nM respectively. After said time, nitrocefin in buffer and ±each of compounds A-H are added and the absorbance at 486 nm is measured every minute for 30 min.
Slopes of optical density are graphed as fold change over the vehicle. N=8-12; Statistics were determined by one-way ANOVA compared to antibody only (Ab). * p≤0.05, ** p≤0.01, *** p≤0.001, **** p≤0.0001 (FIG. 3).
as §4

[3] = target: T1, NR2B surface expression in hNR1/PSD95/NR2B expressing HEK cells; assay: β-lactamase assay, restoration of NR2B surface expression after ANRE patient CSF; type: cell-based; settings: after CSF (1:10 dilution) from ANRE patients N1, N2, N3; FIG. 2
Experimental: In this example hNR1/PSD95/NR2B expressing HEK cells tagged with a β-lactamase enzyme at the N-terminus of NR2B are incubated with CSF (1:10 dilution) from each of three individual ANRE patients (N1, N2, and N3).
as §4, with “The cells were washed once with buffer and then incubated for 15 min at 37° C. with buffer ±each of compound A, B and C. Nitrocefin in buffer (100 mM final; Cayman Chemical) ±each of compound A, B and C was added to each well and absorbance at 486 nm was measured every minute for 30 min at 37° C. in a plate reader.” left out

[4] = target: T2, NR2B:R393A mutant receptors (Homo sapiens, UniProt Q13224, R393A); assay: β-lactamase assay, NMDAR 2B trafficking in mutant R393A receptors; type: cell-based; settings: FIG. 6A-6C; for ability to restore cell surface NR2B expression in NR2B:R393A mutant following ANRE patient serum IgG: after exposure to ANRE patient serum IgG
T2 construct: expressed in transfected cells; transient β-lactamase-hGluN2B R393A
Experimental: as §3, §4

[5] = target: T1, NR2B surface expression in hNR1/PSD95/NR2B expressing HEK cells; assay: β-lactamase assay, restoration of NR2B surface expression after purified ANRE patient serum IgG; type: cell-based; settings: varying concentrations, FIG. 6A-6C
[6] = test system: Schaffer collateral-CA1 synapses in hippocampal slices; assay: Hippocampal slice LTP (fEPSP slope) with focal NR1 antibody application; type: cell-based, rat; settings: 500 nM bath-applied, FIG. 5B
Text: Two extracellular recording patch pipettes were placed at equal distances (˜500 μm) on either side of a single bipolar stainless steel stimulating electrode (Frederick Haer Inc.). A single test stimulus was applied each 30 seconds, to evoke field excitatory postsynaptic potentials (fEPSPs) recorded simultaneously at the Control and Antibody (Ab) recording sites. […]
LTP was induced by the stimulation of Schaffer collateral axons with high frequency theta burst stimulus trains. The fEPSP slope was measured before and after the induction of LTP in hippocampal slices treated with control, control +NR1Ab, Compound A, or Compound A +NR1Ab.
The experimental protocol to test the effects of focal application of NR1 antibodies on synaptic transmission and long-term potentiation (LTP) of synaptic strength at Schaffer collateral-CA1 synapses in hippocampal slices in vitro is illustrated in FIG. 5A below. […] A single test stimulus was applied each 30 seconds, to evoke field excitatory postsynaptic potentials (fEPSPs) recorded simultaneously at the Control and Antibody (Ab) recording sites. […] Statistics were determined by Student's t-test for unpaired data.

T2 sequence (Q13224 27-1484 R393A, other chains not shown): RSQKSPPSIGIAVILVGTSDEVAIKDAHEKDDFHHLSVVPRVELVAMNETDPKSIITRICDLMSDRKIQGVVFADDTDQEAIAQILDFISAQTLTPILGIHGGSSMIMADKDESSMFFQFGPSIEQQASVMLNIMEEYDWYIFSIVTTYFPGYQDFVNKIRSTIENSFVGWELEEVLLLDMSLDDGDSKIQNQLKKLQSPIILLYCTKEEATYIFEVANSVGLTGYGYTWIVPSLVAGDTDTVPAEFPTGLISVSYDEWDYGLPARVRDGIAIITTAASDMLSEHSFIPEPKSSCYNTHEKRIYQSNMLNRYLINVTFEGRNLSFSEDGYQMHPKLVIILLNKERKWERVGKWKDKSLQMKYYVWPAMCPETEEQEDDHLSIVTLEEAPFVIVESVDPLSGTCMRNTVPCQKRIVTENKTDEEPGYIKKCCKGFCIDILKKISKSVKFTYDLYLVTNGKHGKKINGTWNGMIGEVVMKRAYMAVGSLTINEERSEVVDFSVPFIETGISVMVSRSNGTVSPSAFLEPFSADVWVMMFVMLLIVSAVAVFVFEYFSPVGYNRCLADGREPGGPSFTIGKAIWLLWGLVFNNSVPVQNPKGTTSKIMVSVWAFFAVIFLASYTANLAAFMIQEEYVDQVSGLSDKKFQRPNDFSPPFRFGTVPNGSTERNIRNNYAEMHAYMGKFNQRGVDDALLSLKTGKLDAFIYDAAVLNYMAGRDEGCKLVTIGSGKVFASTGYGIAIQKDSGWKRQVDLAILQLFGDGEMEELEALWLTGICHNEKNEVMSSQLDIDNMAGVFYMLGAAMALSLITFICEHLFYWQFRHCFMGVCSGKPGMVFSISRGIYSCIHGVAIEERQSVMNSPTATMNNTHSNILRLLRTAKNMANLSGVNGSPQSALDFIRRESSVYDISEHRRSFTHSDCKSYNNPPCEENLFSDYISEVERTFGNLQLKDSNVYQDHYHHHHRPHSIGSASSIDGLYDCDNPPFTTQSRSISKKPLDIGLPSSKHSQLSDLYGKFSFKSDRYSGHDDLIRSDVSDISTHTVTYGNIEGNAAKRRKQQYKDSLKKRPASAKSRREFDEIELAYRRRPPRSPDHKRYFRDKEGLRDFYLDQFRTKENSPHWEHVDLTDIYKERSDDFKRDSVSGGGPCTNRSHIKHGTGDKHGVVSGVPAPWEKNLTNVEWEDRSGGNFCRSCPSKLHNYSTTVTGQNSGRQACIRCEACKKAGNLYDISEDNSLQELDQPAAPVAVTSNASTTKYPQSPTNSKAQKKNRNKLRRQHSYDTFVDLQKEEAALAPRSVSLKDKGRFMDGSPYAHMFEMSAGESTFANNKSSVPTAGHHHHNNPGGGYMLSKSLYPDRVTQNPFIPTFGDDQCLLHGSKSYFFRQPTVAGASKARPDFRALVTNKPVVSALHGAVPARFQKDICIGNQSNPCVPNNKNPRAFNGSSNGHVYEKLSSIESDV
T1 sequence (Q13224 27-1484, other chains not shown): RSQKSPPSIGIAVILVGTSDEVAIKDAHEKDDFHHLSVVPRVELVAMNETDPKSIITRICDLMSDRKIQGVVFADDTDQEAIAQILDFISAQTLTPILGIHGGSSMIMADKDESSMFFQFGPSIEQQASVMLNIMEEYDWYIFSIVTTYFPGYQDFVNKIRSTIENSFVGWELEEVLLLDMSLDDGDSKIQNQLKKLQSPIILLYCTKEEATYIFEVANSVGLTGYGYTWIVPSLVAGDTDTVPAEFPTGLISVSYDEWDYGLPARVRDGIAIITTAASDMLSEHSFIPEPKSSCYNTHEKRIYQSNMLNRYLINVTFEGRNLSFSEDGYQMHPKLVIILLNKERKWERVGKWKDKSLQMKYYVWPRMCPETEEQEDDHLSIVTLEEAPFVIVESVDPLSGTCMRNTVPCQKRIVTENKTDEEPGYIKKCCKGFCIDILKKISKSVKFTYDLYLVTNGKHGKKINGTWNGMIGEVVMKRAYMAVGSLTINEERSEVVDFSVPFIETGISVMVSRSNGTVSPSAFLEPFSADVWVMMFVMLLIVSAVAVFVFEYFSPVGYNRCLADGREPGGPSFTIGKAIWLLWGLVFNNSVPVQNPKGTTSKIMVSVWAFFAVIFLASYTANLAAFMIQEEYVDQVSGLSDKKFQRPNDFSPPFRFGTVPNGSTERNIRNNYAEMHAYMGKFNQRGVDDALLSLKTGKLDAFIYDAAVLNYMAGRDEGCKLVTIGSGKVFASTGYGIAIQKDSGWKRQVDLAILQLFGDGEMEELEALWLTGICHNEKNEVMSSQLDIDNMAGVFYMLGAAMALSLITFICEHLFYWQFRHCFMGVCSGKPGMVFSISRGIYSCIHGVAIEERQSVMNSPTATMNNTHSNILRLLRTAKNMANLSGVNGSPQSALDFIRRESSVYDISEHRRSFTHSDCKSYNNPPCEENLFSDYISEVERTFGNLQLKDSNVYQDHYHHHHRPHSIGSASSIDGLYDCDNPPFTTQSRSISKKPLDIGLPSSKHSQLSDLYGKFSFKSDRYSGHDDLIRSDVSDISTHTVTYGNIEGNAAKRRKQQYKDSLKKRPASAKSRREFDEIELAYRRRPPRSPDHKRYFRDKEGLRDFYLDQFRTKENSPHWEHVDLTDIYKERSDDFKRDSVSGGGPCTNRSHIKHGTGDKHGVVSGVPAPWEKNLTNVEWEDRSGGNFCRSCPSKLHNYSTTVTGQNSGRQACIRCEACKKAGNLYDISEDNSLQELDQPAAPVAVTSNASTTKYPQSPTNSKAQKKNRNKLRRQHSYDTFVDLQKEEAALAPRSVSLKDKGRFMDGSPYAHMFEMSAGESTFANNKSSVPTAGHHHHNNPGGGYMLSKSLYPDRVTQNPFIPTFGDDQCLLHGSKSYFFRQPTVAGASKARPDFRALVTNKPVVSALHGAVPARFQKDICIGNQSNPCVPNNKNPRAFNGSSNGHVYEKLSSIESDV

Row | surface NR2B expression in wild-type NR2B receptors relative to untreated vehicle controls [1] | ability to restore cell surface NR2B expression in NR2B:R393A mutant [4] | ability to restore cell surface NR2B expression in NR2B:R393A mutant following ANRE patient serum IgG [4] | increase in cell surface NR2B expression ([1]; 1 pM, in the absence of Ab, positive control, wild-type) [%] | SMILES | restoration of NR2B surface expression to "No Ab" control level [2] | restoration of cell surface NR2B expression to vehicle levels [3] | restoration of NR2B surface expression to "No Ab" control level, wild-type NR2B (Example 6) [5] | rescue of Schaffer collateral-CA1 LTP from acute NMDAR1 antibody effects ([6]; NR1 antibody 1:20 dilution) | magnitude of LTP relative to control ([6]; after high frequency stimulation, no antibody)
1 | increase surface NR2B expression | abolishes the ability | abolishes the ability |  | CC(C)C(=O)N1CCC[C@@]12CN([C@H](C(N)=O)[C@@H](C)O)C2=O [B] | restore NR2B surface expression to levels observed in the “No Ab” control | restored cell surface NR2B expression to vehicle levels | restore NR2B surface expression to levels observed in the “No Ab” control |  | 
2 | increase surface NR2B expression | abolishes the ability | abolishes the ability |  | COc1ccc(CN2C[C@@]3(CCNC(=O)C3)C2=O)cc1 [C] | restore NR2B surface expression to levels observed in the “No Ab” control | restored cell surface NR2B expression to vehicle levels | restore NR2B surface expression to levels observed in the “No Ab” control |  | 
3 | increase surface NR2B expression | abolishes the ability | abolishes the ability | ~20 | CC(C)C(=O)N1CCC[C@]12CN([C@H](C(N)=O)[C@@H](C)O)C2=O [Compound A] | restore NR2B surface expression to levels observed in the “No Ab” control | restored cell surface NR2B expression to vehicle levels | restore NR2B surface expression to levels observed in the “No Ab” control | rescues Schaffer collateral-CA1 LTP | increased the magnitude of LTP
4 |  |  |  |  | COc1ccc(CN2C[C@]3(CCNC(=O)C3)C2=O)cc1 [Compound D] | failed to restore NR2B surface expression |  |  |  | 
5 |  |  |  |  | CC(C)CN1CCC[C@]12CN([C@H](C(N)=O)[C@@H](C)O)C2=O [E] | failed to restore NR2B surface expression |  |  |  | 
6 |  |  |  |  | CC(C)CN1CCC[C@@]12CN([C@H](C(N)=O)[C@@H](C)O)C2=O [F] | failed to restore NR2B surface expression |  |  |  | 
7 |  |  |  |  | CC(C)CN1[C@@]2(CC[C@@]13CNC3=O)CNC2=O [G] | failed to restore NR2B surface expression |  |  |  | 
8 |  |  |  |  | CC(C)CN1[C@]2(CC[C@]13CNC3=O)CNC2=O [H] | failed to restore NR2B surface expression |  |  |  | 
